In patent publication US9708293B2, “N-(pyridin-2-yl)pyrimidin-4-amine derivatives containing a sulfone group” (BAYER PHARMA AKTIENGESELLSCHAFT, priority 2012, dated 2017):
pIC50: −log10 of the molar value.

Legend:
CDK9/CycT1 = molecular target: T1, CDK9/CycT1 (Homo sapiens, UniProt P50750); assay: CDK9/CycT1 kinase assay (Method 1a); assay type: biochemical; conditions: 10 μM ATP
T1 construct: Recombinant full-length His-tagged human CDK9 and CycT1; His; purchased Invitrogen PV4131; host or cells: insect cells
T1 sequence (P50750 whole entry): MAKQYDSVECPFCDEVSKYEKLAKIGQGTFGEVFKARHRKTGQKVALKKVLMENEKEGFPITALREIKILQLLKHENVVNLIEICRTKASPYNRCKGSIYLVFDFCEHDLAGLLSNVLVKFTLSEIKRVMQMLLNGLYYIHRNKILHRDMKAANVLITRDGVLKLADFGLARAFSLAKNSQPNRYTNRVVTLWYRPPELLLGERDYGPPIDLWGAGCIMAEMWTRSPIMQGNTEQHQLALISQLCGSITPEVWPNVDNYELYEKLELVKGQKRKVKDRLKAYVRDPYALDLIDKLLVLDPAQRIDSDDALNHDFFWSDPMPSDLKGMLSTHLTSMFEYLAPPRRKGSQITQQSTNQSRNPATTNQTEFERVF
T1 sequence (O60563 whole entry partner): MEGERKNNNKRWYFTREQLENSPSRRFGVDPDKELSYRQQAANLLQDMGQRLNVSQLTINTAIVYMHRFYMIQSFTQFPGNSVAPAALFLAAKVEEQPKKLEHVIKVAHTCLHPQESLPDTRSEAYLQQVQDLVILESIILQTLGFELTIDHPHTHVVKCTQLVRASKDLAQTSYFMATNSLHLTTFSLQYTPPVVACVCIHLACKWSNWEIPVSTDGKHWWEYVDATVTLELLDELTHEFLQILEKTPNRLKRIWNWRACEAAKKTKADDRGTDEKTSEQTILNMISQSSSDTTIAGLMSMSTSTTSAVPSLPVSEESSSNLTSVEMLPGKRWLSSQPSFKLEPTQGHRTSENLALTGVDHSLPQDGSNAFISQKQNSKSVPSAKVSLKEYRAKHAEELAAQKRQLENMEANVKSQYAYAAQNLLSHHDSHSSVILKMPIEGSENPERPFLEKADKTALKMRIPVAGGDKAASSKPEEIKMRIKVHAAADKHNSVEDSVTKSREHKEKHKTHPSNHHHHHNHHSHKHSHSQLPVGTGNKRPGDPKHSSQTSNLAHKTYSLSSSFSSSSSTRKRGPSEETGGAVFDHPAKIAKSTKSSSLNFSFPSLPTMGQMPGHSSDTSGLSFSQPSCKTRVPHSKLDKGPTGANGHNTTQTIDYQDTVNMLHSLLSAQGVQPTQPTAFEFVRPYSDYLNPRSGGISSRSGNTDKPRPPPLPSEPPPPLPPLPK
From the text: 1a. CDK9/CycT1 Kinase Assay:
CDK9/CycT1—inhibitory activity of compounds of the present invention was quantified employing the CDK9/CycT1 TR-FRET assay as described in the following paragraphs:
Recombinant full-length His-tagged human CDK9 and CycT1, expressed in insect cells and purified by Ni-NTA affinity chromatography, were purchased from Invitrogen (Cat. No PV4131). As substrate for the kinase reaction biotinylated peptide biotin-Ttds-YISPLKSPYKISEG (C-terminus in amid form) was used which can be purchased e.g. form the company JERINI Peptide Technologies (Berlin, Germany). For the assay 50 nl of a 100 fold concentrated solution of the test compound in DMSO was pipetted into a black low volume 384 well microtiter plate (Greiner Bio-One, Frickenhausen, Germany), 2 μl of a solution of CDK9/CycT1 in aqueous assay buffer [50 mM Tris/HCl pH 8.0, 10 mM MgCl2, 1.0 mM dithiothreitol, 0.1 mM sodium ortho-vanadate, 0.01% (v/v) Nonidet-P40 (Sigma)] were added and the mixture was incubated for 15 min at 22° C. to allow pre-binding of the test compounds to the enzyme before the start of the kinase reaction. Then the kinase reaction was started by the addition of 3 μl of a solution of adenosine-tri-phosphate (ATP, 16.7 μM=>final conc. in the 5 μl assay volume is 10 μM) and substrate (1.67 μM=>final conc. in the 5 μl assay volume is 1 μM) in assay buffer and the resulting mixture was incubated for a reaction time of 25 min at 22° C. […]
(§1) The resulting mixture was incubated 1 h at 22° C. to allow the formation of complex between the phosphorylated biotinylated peptide and the detection reagents. Subsequently the amount of phosphorylated substrate was evaluated by measurement of the resonance energy transfer from the Eu-chelate to the streptavidine-XL. Therefore, the fluorescence emissions at 620 nm and 665 nm after excitation at 350 nm was measured in a HTRF reader, e.g. a Rubystar (BMG Labtechnologies, Offenburg, Germany) or a Viewlux (Perkin-Elmer). […]

CDK2/CycE = molecular target: T2, CDK2/CycE (Homo sapiens, UniProt P24941); assay: CDK2/CycE kinase assay (Method 2a); assay type: biochemical; conditions: 10 μM ATP
T2 construct: GST; purchased ProQinase GmbH (Freiburg, Germany); host or cells: insect cells (Sf9)
From the text: 2a. CDK2/CycE Kinase Assay:
CDK2/CycE-inhibitory activity of compounds of the present invention was quantified employing the CDK2/CycE TR-FRET assay as described in the following paragraphs:
Recombinant fusion proteins of GST and human CDK2 and of GST and human CycE, expressed in insect cells (Sf9) and purified by Glutathion-Sepharose affinity chromatography, were purchased from ProQinase GmbH (Freiburg, Germany). As substrate for the kinase reaction biotinylated peptide biotin-Ttds-YISPLKSPYKISEG (C-terminus in amid form) was used which can be purchased e.g. form the company JERINI Peptide Technologies (Berlin, Germany).
For the assay 50 nl of a 100 fold concentrated solution of the test compound in DMSO was pipetted into a black low volume 384 well microtiter plate (Greiner Bio-One, Frickenhausen, Germany), 2 μl of a solution of CDK2/CycE in aqueous assay buffer [50 mM Tris/HCl pH 8.0, 10 mM MgCl2, 1.0 mM dithiothreitol, 0.1 mM sodium ortho-vanadate, 0.01% (v/v) Nonidet-P40 (Sigma)] were added and the mixture was incubated for 15 min at 22° C. to allow pre-binding of the test compounds to the enzyme before the start of the kinase reaction. Then the kinase reaction was started by the addition of 3 μl of a solution of adenosine-tri-phosphate (ATP, 16.7 μM=>final conc. in the 5 μl assay volume is 10 μM) and substrate (1.25 μM=>final conc. in the 5 μl assay volume is 0.75 μM) in assay buffer and the resulting mixture was incubated for a reaction time of 25 min at 22° C. The concentration of CDK2/CycE was adjusted depending of the activity of the enzyme lot and was chosen appropriate to have the assay in the linear range, typical concentrations were in the range of 130 ng/mL. The reaction was stopped by the addition of 5 μl of a solution of TR-FRET detection reagents (0.2 μM streptavidine-XL665 [Cisbio Bioassays, Codolet, France] and 1 nM anti-RB(pSer807/pSer811)-antibody from BD Pharmingen [#558389] and 1.2 nM LANCE EU-W1024 labeled anti-mouse IgG antibody [Perkin-Elmer, product no. AD0077]) in an aqueous EDTA-solution (100 mM EDTA, 0.2% (w/v) bovine serum albumin in 100 mM HEPES/NaOH pH 7.0).
as §1, with “TR-FRET” for “HTRF”, “(Perkin-Elmer). The ratio of the emissions at 665 nm and at […] was taken as the measure for the amount of phosphorylated substrate.” for “(Perkin-Elmer).”

pIC50 (CDK9/CycT1) | pIC50 (CDK2/CycE) | Structure (SMILES)
8.52 | 6.55 | COc1cc(F)ccc1-c1cc(Nc2cc(CS(C)(=O)=O)ccn2)ncn1 [Example 1, 6-(4-Fluoro-2-methoxyphenyl)-N-{4-[(methylsulfonyl)methyl]pyridin-2-yl}pyrimidin-4-amine]
– | 7.05 | COc1cc(F)ccc1-c1cc(Nc2cc(CS(C)(=O)=O)cc(C)n2)ncn1 [Example 2, 6-(4-Fluoro-2-methoxyphenyl)-N-{6-methyl-4-[(methylsulfonyl)methyl]pyridin-2-yl}pyrimidin-4-amine]
8.40 | 7.14 | COc1cc(F)ccc1-c1cc(Nc2cc(CS(C)(=O)=O)cc(C(F)(F)F)n2)ncn1 [Example 3, 6-(4-Fluoro-2-methoxyphenyl)-N-{4-[(methylsulfonyl)methyl]-6-(trifluoromethyl)pyridin-2-yl}pyrimidin-4-amine]
8.52 | 7.04 | COc1cc(F)ccc1-c1cc(Nc2cc(CS(C)(=O)=O)cc(F)n2)ncn1 [Example 4, 6-(4-Fluoro-2-methoxyphenyl)-N-{6-fluoro-4-[(methylsulfonyl)methyl]pyridin-2-yl}pyrimidin-4-amine]
